Experimental data as given in patent US11306064B2, “Benzothia(di)azepine compounds and their use as bile acid modulators” (Albireo AB, priority 2018, dated 2022).
pIC50: −log10 of the molar value.

Tests used:
[1] = Bioavailability studies in mice; format: in vivo; settings: mouse; C57BL/6 mice; single intravenous dose 1 mg/kg vs single oral dose 10 mg/kg; plasma LC-MS/MS
Protocol: C57BL/6 mice of 8-9 weeks old were used. For each test compound, two groups of 3 animals each were used. One group was administered a single intravenous dose of 1 mg/kg (vehicle 100% DMSO) through the tail vein and the other group was administered a single oral dose of 10 mg/kg through gavage needle. The group that was administered an oral dose was fasted overnight. Blood samples were collected after 0.083, 0.25, 0.5, 1, 2, 4, 6, 8 and 24 hours following intravenous administration, and after 0.25, 0.5, 1, 2, 4, 6, 8 and 24 hours following oral administration. Blood samples were taken from saphenous vein. 0.2% EDTA was used as the anticoagulant. The samples were analyzed by a discovery grade bioanalytical method developed for the estimation of test compound in plasma, using an LC-MS/MS system.

HepaRG cells = test: HepaRG-based assay: 3H-taurocholic acid uptake in differentiated HepaRG cells; format: cell-based; settings: 0.3 μM 3H-taurocholic acid and 7.5 μM cold taurocholic acid, 30 minutes
Procedure, shortened: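 Differentiated HepaRG cells cultured 7 days post-seeding were exposed for 30 min at 37 °C to 0.3 μM 3H-taurocholic acid plus 7.5 μM cold taurocholic acid with inhibitor (3-fold dilutions, 0.2% DMSO). Uptake was stopped on ice, washed with 1 mM unlabelled taurocholic acid, and counted by scintillation.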

| bioavailability [1] [%] | pIC50 (HepaRG cells; Homo sapiens, HepaRG) | pIC50 (HepaRG cells) | Compound |
| --- | --- | --- | --- |
| 100 | 6.09 | – | CCCCC1(CC)CN(c2ccccc2)c2cc(Br)c(O/C=C/C(=O)O)cc2S(=O)(=O)C1 (single isomer, unassigned) [Example 6, (E)-3-((7-bromo-3-butyl-3-ethyl-1,1-dioxido-5-phenyl-2,3,4,5-tetrahydro-1,5-benzothiazepin-8-yl)oxy)acrylic acid] |
| 35 | 5.90 | – | CCCCC1(CC)CN(c2ccccc2)c2cc(SC)c(O/C=C/C(=O)O)cc2S(=O)(=O)C1 (single isomer, unassigned) [Example 18, (E)-3-((3-butyl-3-ethyl-7-(methylthio)-1,1-dioxido-5-phenyl-2,3,4,5-tetrahydro-1,5-benzothiazepin-8-yl)oxy)acrylic acid] |
| 44 | – | 6.39 | CCCCC1(CC)CN(c2ccccc2)c2cc(SC)c(O/C=C(\F)C(=O)O)cc2S(=O)(=O)C1 (single isomer, unassigned) [Example 43, (Z)-3-((3-butyl-3-ethyl-7-(methylthio)-1,1-dioxido-5-phenyl-2,3,4,5-tetrahydro-1,5-benzothiazepin-8-yl)oxy)-2-fluoroacrylic acid] |
| 18 | – | 6.59 | CCCCC1(CC)CN(c2ccccc2)c2cc(Cl)c(O/C=C(\F)C(=O)O)cc2S(=O)(=O)C1 (single isomer, unassigned) [Example 48, (Z)-3-((3-butyl-7-chloro-3-ethyl-1,1-dioxido-5-phenyl-2,3,4,5-tetrahydro-1,5-benzothiazepin-8-yl)oxy)-2-fluoroacrylic acid] |
| 27 | 5.96 | – | CCCCC1(CCCC)CN(c2ccccc2)c2cc(SC)c(O/C=C(\F)C(=O)O)cc2S(=O)(=O)C1 [Example 11, (Z)-3-((3,3-dibutyl-7-(methylthio)-1,1-dioxido-5-phenyl-2,3,4,5-tetrahydro-1,5-benzothiazepin-8-yl)oxy)-2-fluoroacrylic acid] |
| 100 | 6.69 | – | CCC1(CC)CN(c2ccccc2)c2cc(SC)c(O/C=C(\F)C(=O)O)cc2S(=O)(=O)C1 [Example 44, (Z)-3-((3,3-diethyl-7-(methylthio)-1,1-dioxido-5-phenyl-2,3,4,5-tetrahydro-1,5-benzothiazepin-8-yl)oxy)-2-fluoroacrylic Acid] |
